Assay [1] deals with T1, hK-RasG12C - hSOS1 interaction (Homo sapiens, UniProt Q07889).
T1 construct: hSOS1 (amino acid 564-1049); made in house; host or cells: E. coli BL21 (DE3)
T1 sequence (Q07889 with tags, fused parts or gaps): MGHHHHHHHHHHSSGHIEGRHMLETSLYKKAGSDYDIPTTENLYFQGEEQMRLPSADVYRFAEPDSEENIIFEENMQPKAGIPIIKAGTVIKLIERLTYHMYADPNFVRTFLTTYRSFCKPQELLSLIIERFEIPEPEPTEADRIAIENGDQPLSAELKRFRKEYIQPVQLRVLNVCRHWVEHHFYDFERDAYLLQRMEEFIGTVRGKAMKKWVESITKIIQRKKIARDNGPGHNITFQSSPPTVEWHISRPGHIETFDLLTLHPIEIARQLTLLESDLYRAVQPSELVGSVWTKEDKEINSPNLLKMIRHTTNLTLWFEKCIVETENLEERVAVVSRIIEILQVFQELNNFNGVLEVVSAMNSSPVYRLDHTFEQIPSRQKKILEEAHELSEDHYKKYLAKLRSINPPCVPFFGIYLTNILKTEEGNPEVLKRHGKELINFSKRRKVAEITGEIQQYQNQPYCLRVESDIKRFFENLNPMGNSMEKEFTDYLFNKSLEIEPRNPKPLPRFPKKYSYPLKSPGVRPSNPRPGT
As to the kind of experiment: Biochemical Assay 1: hK-RasG12C interaction assay with hSOS1 (HTRF). Format: binding. The settings on record: for IC50: values expressed as IC50; for inhibition at 20 µM: read-out: Assay 1 (hKRAS, hSOS Interaction) activity (expressed as IC50, or as % inhibition at 20 μM). As for the experimental part:
Biochemical Assay 1: hK-RasG12C Interaction Assay with hSOS1
This assay quantifies the equilibrium interaction of human SOS1 (hSOS1) with human K-Ras^G12C (hK-RasG12C). Detection of the interaction is achieved by measuring homogenous time-resolved fluorescence resonance energy transfer (HTRF) from antiGST-Europium (FRET donor) bound to GST-K-RasG12C to anti-6His-XL665 bound to His-tagged hSOS1 (FRET-acceptor).
The assay buffer contained 5 mM HEPES pH 7.4 (Applichem), 150 mM NaCl (Sigma), 10 mM EDTA (Promega), 1 mM DTT (Thermofisher), 0.05% BSA Fraction V, pH 7.0, (ICN Biomedicals), 0.0025% (v/v) Igepal (Sigma) and 100 mM KF (FLUKA).
Concentrations of protein batches used were optimized to be within the linear range of the HTRF signal. A Ras working solution was prepared in assay buffer containing typically 10 nM GST-hK-RasG12C and 2 nM antiGST-Eu(K) (Cisbio, France). A SOS1 working solution was prepared in assay buffer containing typically 20 nM His-hSOS1 and 10 nM anti-6His-XL665 (Cisbio, France). An inhibitor control solution was prepared in assay buffer containing 10 nM anti-6His-XL665 without hSOS1.
(§1) Fifty nl of a 100-fold concentrated solution of the test compound in DMSO were transferred into a black microtiter test plate (384 or 1536, Greiner Bio-One, Germany) For this, either a Hummingbird liquid handler (Digilab, Mass., USA) or an Echo acoustic system (Labcyte, Calif., USA) was used.
All steps of the assay were performed at 20° C. A volume of 2.5 μl of the Ras working solution was added to all wells of the test plate using a Multidrop dispenser (Thermo Labsystems). After […] preincubation, 2.5 μl of the SOS1 working solution were added to all wells except for those wells at the side of the test plate that were subsequently filled with 2.5 μl of the inhibitor control solution. After […] incubation the fluorescence was measured with a Pherastar (BMG, Germany) using the HTRF module (excitation 337 nm, emission 1:620 nm, emission 2:665 nm).
(§2) IC50 values were calculated by 4-Parameter fitting using a commercial software package (Genedata Screener, Switzerland).

For assay [2], the target named is T2, hSOS1 (hSOS1-mediated nucleotide exchange of hK-RasG12C) (Homo sapiens, UniProt Q07889).
T2 construct: hSOS1 (amino acid 564-1049); made in house; host or cells: E. coli BL21 (DE3)
T2 sequence (Q07889 with tags, fused parts or gaps): T1 sequence (Q07889 with tags, fused parts or gaps)
In words: Biochemical Assay 2: hK-RasG12C activation assay by hSOS1 at high GTP concentration (HTRF nucleotide exchange). The settings on record: high GTP (50 μM GTP).
Text: Biochemical Assay 2: hK-RasG12C Activation Assay by hSOS1 at High GTP Concentration
This assay quantifies human SOS1-mediated nucleotide exchange of human K-Ras^G12C (hK-RasG12C) preloaded with a fluorescent […] and in presence of an excess of free GTP. Loaded hK-RasG12C generates a high HTRF-signal by energy transfer from antiGST-Terbium (FRET donor) bound to hK-Ras to the loaded fluorescent GDP analog (FRET-acceptor). hSOS1 activity exchanges the fluorescent GDP for non-fluorescent GTP and therefore leads to a reduction of the HTRF signal.
The fluorescent GDP-analog EDA-GDP-Dy647P1 (2′/3′-O-(2-Aminoethyl-carbamoyl)-guanosine-5′-diphosphate labelled with Dy647P1 (Dyomics GmbH, Germany)) was synthesized by Jena Biosciences GmbH (Germany) and supplied as a 1 mM aqueous solution.
Concentrations of protein batches used were optimized to be within the linear range of the HTRF signal.
Addition of 20 μl 1 M MgCl2 (Sigma) to final 40 mM and store on ice. Purification into buffer (10 mM HEPES pH 7.4 (Applichem), 150 mM NaCl (Sigma), 5 mM MgCl2 (Sigma)) by use of a PD-Minitrap desalting column (GE Healthcare). Concentration of 1 ml purified hK-Ras-GDP-Dy647 is approx. 4-5 μM.
The assay buffer contained 10 mM HEPES pH 7.4 (Applichem), 150 mM NaCl (Sigma), 5 mM MgCl2 (Sigma), 1 mM DTT (Thermofisher), 0.05% BSA Fraction V, pH 7.0, (ICN Biomedicals), 0.0025% (v/v) Igepal (Sigma).
A Ras working solution was prepared in assay buffer containing typically 80 nM loaded GST-hK-RasG12C-EDA-GDP-Dy647P1 and 2 nM antiGST-Tb (Cisbio, France).
Alternatively, the inhibitor control solution was prepared by supplementing the hSOS1 working solution with 20 μM of 6,7-dimethoxy-N-[(1R)-1-(1-naphthyl)ethyl]quinazolin-4-amine which was used to calibrate the assay.
as §1
All steps of the assay were performed at 20° C. A volume of 2.5 μl of the Ras working solution was added to all wells of the test plate using a Multidrop dispenser (Thermo Labsystems). After 2 min. preincubation, 2.5 μl of the hSOS1 working solution were added to all wells except for those wells at the side of the test plate that were subsequently filled with 2.5 μl of the inhibitor control solution. After 20 min. incubation the fluorescence was measured with a Pherastar (BMG, Germany) using the HTRF module (excitation 337 nm, emission 1:620 nm, emission 2:665 nm).
as §2

SMILES strings stand for the structures.

This note sets out measurements from patent US20220274979A1 (Bayer Pharma Aktiengesellschaft, priority 2018, published 2022).

In the case of `COc1ncc2nc(C)nc(N[C@H](C)c3cccc(Br)c3)c2n1` [Example 24, N-[(1R)-1-(3-bromophenyl)ethyl]-6-methoxy-2-methylpyrimido[5,4-d]pyrimidin-4-amine], the IC50 in assay [1] worked out at 9410 nM; in assay [2], 9710 nM.
As to `Cc1nc(N[C@H](C)c2cccc(Br)c2)c2nc(Oc3ccccc3)ncc2n1` [Example 25, N-[(1R)-1-(3-bromophenyl)ethyl]-2-methyl-6-phenoxypyrimido[5,4-d]pyrimidin-4-amine], the inhibition at 20 µM in assay [1] is 23.7%. The IC50 in assay [2] was above 20000 nM.
For the compound `COCCOc1ncc2nc(C)nc(N[C@H](C)c3cccc(Br)c3)c2n1` [Example 26, N-[(1R)-1-(3-bromophenyl)ethyl]-6-(2-methoxyethoxy)-2-methylpyrimido[5,4-d]pyrimidin-4-amine], the IC50 is 2750 nM in assay [1] and 3040 nM in assay [2].
As to `Cc1nc(N[C@H](C)c2cccc(Br)c2)c2nc(N3CCOCC3)ccc2n1` [Example 27, N-[(1R)-1-(3-bromophenyl)ethyl]-2-methyl-6-(morpholin-4-yl)pyrido[3,2-d]pyrimidin-4-amine], the IC50 came to 2580 nM in assay [1] and 1840 nM in assay [2].
Consider `COc1ccc2nc(C)nc(N[C@H](C)c3cccc(Br)c3)c2n1` [Example 28, N-[(1R)-1-(3-bromophenyl)ethyl]-6-methoxy-2-methylpyrido[3,2-d]pyrimidin-4-amine], for which, in assay [1], the inhibition at 20 µM was found to be 49.8%. In addition, the IC50 in assay [2] is above 20000 nM.
Regarding `CCOc1ccc2nc(C)nc(N[C@H](C)c3cccc(Br)c3)c2n1` [Example 29, N-[(1R)-1-(3-bromophenyl)ethyl]-6-ethoxy-2-methylpyrido[3,2-d]pyrimidin-4-amine], the IC50 in assay [1] was 17400 nM; in assay [2] it was above 20000 nM.
The matching figures for `COCCOc1ccc2nc(C)nc(N[C@H](C)c3cccc(Br)c3)c2n1` [Example 30, N-[(1R)-1-(3-bromophenyl)ethyl]-6-(2-methoxyethoxy)-2-methylpyrido[3,2-d]pyrimidin-4-amine]: 5430 nM and 5740 nM.
`Cc1nc(N[C@H](C)c2cccc(Br)c2)c2nc(N(C)C)ccc2n1` [Example 31]: the figures for the IC50 in assay [1] and in assay [2] were 17700 nM and at least 40000 nM, respectively.
Turning to `Cc1nc(N[C@H](C)c2cccc(Br)c2)c2nc(Oc3ccccc3)ccc2n1` [Example 32, N-[(1R)-1-(3-bromophenyl)ethyl]-2-methyl-6-phenoxypyrido[3,2-d]pyrimidin-4-amine], in assay [1], the inhibition at 20 µM is 22.4%. For the same compound, in assay [2], the IC50 was above 20000 nM.
As to `Cc1nc(N[C@H](C)c2cccc(Br)c2)c2nc(OCc3ccccc3)ccc2n1` [Example 33, 6-(benzyloxy)-N-[(1R)-1-(3-bromophenyl)ethyl]-2-methylpyrido[3,2-d]pyrimidin-4-amine], the inhibition at 20 µM in assay [1] stood at 29.3%. Also, in assay [2], the IC50 was above 20000 nM.
The matching figures for `Cc1nc(N[C@H](C)c2cccc(Br)c2)c2cc(F)ncc2n1` [Example 34, N-[(1R)-1-(3-bromophenyl)ethyl]-6-fluoro-2-methylpyrido[3,4-d]pyrimidin-4-amine]: 36.7% and above 20000 nM.
In the case of `Cc1nc(NC(C)c2ccc(Br)s2)c2cc(F)ncc2n1` (stereo not shown) [Example 35], the inhibition at 20 µM in assay [1] worked out at 23.5%. In assay [2], this compound showed a 50% inhibitory concentration (IC50) above 20000 nM.
For the compound `CNCc1ccccc1-c1ccc(C(C)Nc2nc(C)nc3cnc(F)cc23)s1` (stereo not shown) [Example 36, 6-fluoro-2-methyl-N-[1-(5-{2-[(methylamino)methyl]phenyl}thiophen-2-yl)ethyl]pyrido[3,4-d]pyrimidin-4-amine], the IC50 in assay [1] worked out at 9030 nM; in assay [2] it was 19000 nM.
The matching figures for `CNCc1ccccc1-c1ccc(C(C)Nc2nc(C)nc3cnc(Oc4ccc(N5CCCC5=O)cc4)cc23)s1` (stereo not shown) [Example 38, 1-{4-[(2-methyl-4-{[1-(5-{2-[(methylamino)methyl]phenyl}thiophen-2-yl)ethyl]amino}pyrido[3,4-d]pyrimidin-6-yl)oxy]phenyl}pyrrolidin-2-one]: 218 nM and 601 nM.
Regarding `Cc1nc(N[C@H](C)c2cccc(Br)c2)c2cc(NCCN3CCOCC3)ncc2n1` [Example 39], the half-maximal inhibitory concentration (IC50) in assay [1] was 876 nM; in assay [2], 1360 nM.
The matching figures for `Cc1nc(N[C@H](C)c2cccc(Br)c2)c2cc(Oc3cccc(O)c3)ncc2n1` [Example 40, 3-[(4-{[(1R)-1-(3-bromophenyl)ethyl]amino}-2-methylpyrido[3,4-d]pyrimidin-6-yl)oxy]phenol]: 13200 nM and 8660 nM.
The matching figures for `Cc1nc(N[C@H](C)c2cccc(Br)c2)c2cc(Oc3cccc(C4=NCCN4C)c3)ncc2n1` [Example 41, N-[(1R)-1-(3-bromophenyl)ethyl]-2-methyl-6-[3-(1-methyl-4,5-dihydro-1H-imidazol-2-yl)phenoxy]pyrido[3,4-d]pyrimidin-4-amine]: 1600 nM and 2310 nM.
The matching figures for `Cc1nc(N[C@H](C)c2cccc(Br)c2)c2cc(N3CCN(Cc4cccnc4)CC3)ncc2n1` [Example 43, N-[(1R)-1-(3-bromophenyl)ethyl]-2-methyl-6-[4-(pyridin-3-ylmethyl)piperazin-1-yl]pyrido[3,4-d]pyrimidin-4-amine]: 296 nM and 380 nM.
Regarding `CC(=O)NCCNc1cc2c(N[C@H](C)c3cccc(Br)c3)nc(C)nc2cn1` [Example 44, N-{2-[(4-{[(1R)-1-(3-bromophenyl)ethyl]amino}-2-methylpyrido[3,4-d]pyrimidin-6-yl)amino]ethyl}acetamide], the IC50 was found to be 985 nM in assay [1] and 1060 nM in assay [2].
Consider `Cc1nc(N[C@H](C)c2cccc(Br)c2)c2cc(N3CCNC(=O)C3)ncc2n1` [Example 45], for which the values for the IC50 in assay [1] and in assay [2] were 91.8 nM and 506 nM, respectively.
